This note sets out measurements from patent US11878045B2, “Inducing cell death by hyperactivation of motility networks” (The Johns Hopkins University, priority 2016, dated 2024).

Entries after “also recorded” stand apart in the source; their conditions may differ.

Series [1] relates to Dictyostelium pten− cells. Particulars: for cytotoxicity for Dictyostelium pten− cells: 5 μM statin, three day period (17, 41, 65 hours); for time after drug treatment at which cell death started to occur: pten− cells; for growth of pten− cells compared to DMSO control: three day period. As to the method:
Cells were treated with 5 μM fluvastatin or DMSO. Images were taken 17 hours (left), 41 hours (middle), and 65 hours (right) after drug treatment.
Seven statins currently available on the market were tested for cytotoxicity on pten− cells. The graph quantifies growth of cells treated with 5 μM of statins or DMSO control over a three day period. Blue, orange, and yellow bars represent relative cell counts 17 hours, 41 hours, and 65 hours after drug treatment.
Statins are inhibitors of HMG-CoA reductase, the rate-controlling enzyme of the mevalonate pathway.

The test system of series [2] is wild type cells. Put plainly: Phenotypic screen of the Johns Hopkins drug library, wild-type counter-screen. In kind it is cell-based, Dictyostelium. Particulars: library screen hits. The source says:
(§1) FIG. 7 is a diagram showing the process of drug library screen. […] Secondary screen confirmed nine compounds with effects selective for pten− but not wild-type cells.
(§2) The John Hopkins Drug Library contains 2560 drugs that are either FDA approved, have been proven in other countries for treating human diseases, or have entered phase II clinical trials. […] These compounds fell into several classes: certain phenothiazines (promazine, chlorpromazine, and thioridazine), certain antibiotics (polymyxin and chloroxine), certain statins (fluvastatin and pitavastatin), and others (benfluorex and phenazopyridine). All of the hits were validated independently with purchased compounds and repeating the experiments.
Background: The purpose of a counterscreen is to sort out artefacts and off-target activity.

Series [3] concerns Dictyostelium pten− cells. Put plainly: Phenotypic screen of the Johns Hopkins drug library on growth of pten− cells. In kind it is cell-based. As to conditions: hits validated independently with purchased compounds.
Source text: as §1, §2

Series [4] concerns wild type cells. Put plainly: Statin growth test on wild type cells. Format: cell-based, Dictyostelium. As to the method: Cells were treated with 5 μM fluvastatin or DMSO.
Another series relates to MCF-10A cells. Put plainly: Growth of parental mammary epithelial cells under compound treatment. Format: cell-based, human. As to conditions: 5 μM. As to the method:
(§3) MCF-10A or pten−/− cells were treated with DMSO control or 5 μM pitavastatin. Upper and lower panels show 44 hours and 68 hours after drug treatment.
(§4) Cells were treated with DMSO control or 5 μM drugs. Blue, orange, and yellow bars represent 20 hours, 44 hours, and 68 hours after drug treatment.
(§5) To test whether the hits from the drug screen targeted human pre-metastatic cells, the growth of the human mammary epithelial cell lines MCF-10A, MCF-10A with homozygous pten deletion (pten−/−), or MCF10-A harboring oncogenic PIK3CA mutations under compound treatment were measured.

The subject of series [5] is MCF10-A harboring oncogenic PIK3CA mutations. Put plainly: Growth of mammary epithelial cells with oncogenic PIK3CA mutations under compound treatment. Format: cell-based, human. As to conditions: 5 μM. As to the method: as §5
Series [6] has as its system MCF-10A with homozygous pten deletion (pten−/−). Put plainly: Growth of mammary epithelial cells with homozygous pten deletion under compound treatment. Format: cell-based, human. Particulars: 5 μM. As to the method:
as §3, §4, §5

In the next series the test system is pten−/− cells. Put plainly: Add-back experiments (MVA, GGPP, cholesterol) with pitavastatin. In kind it is cell-based, human.

For the compound `CC[C@H](C)C(=O)O[C@H]1C[C@H](O)C=C2C=C[C@H](C)[C@H](CC[C@@H](O)C[C@@H](O)CC(=O)O)[C@H]21` [pravastatin], in series [1], the “cytotoxicity for Dictyostelium pten− cells” value (from here on “cytotoxicity”) is on record as “well tolerated”.
As to `CC(C)n1c(/C=C/C(O)CC(O)CC(=O)O)c(-c2ccc(F)cc2)c2ccccc21` (stereo not drawn) [fluvastatin], the “effect on morphology and growth of wild type cells” value (shortened to “effect on morphology and growth”) in the series on wild type cells [2] is “little or no effect”. In series [1], the “cytotoxicity” value is recorded as “high cytotoxicity; also recorded: higher efficacy compared to all other statins”, the “time after drug treatment at which cell death started to occur” value is on record as “around 40 hours” and the “growth of pten− cells compared to DMSO control” value is listed as “grew much slower”. The “growth and survival of Dictyostelium pten− cells (FIG. 8)” value in series [1] (5 μM, images 17, 41 and 65 hours after treatment) was “selectively affected the growth and survival”. For the same compound, the “effect on growth or survival of pten− cells in the library screen” value (shortened to “effect on growth or survival”) in series [3] is on record as “selectively slow down the growth of or kill pten− cells”. Besides, in the series with wild type cells [4], the “growth of wild type cells treated with the statins” value was “no significant growth defect”.
As to `CC(Cc1cccc(C(F)(F)F)c1)NCCOC(=O)c1ccccc1` (stereo not drawn) [benfluorex], the “effect on morphology and growth” value with wild type cells [2] was “little or no effect”. For the same compound, in series [3], the “effect on growth or survival” value is on record as “selectively slow down the growth of or kill pten− cells”.
`CC(C)c1nc(N(C)S(C)(=O)=O)nc(-c2ccc(F)cc2)c1/C=C/[C@@H](O)C[C@@H](O)CC(=O)O` [rosuvastatin]: the “cytotoxicity” value in series [1] is “well tolerated”.
The same measure, in the same setting: as for `CC(C)c1c(C(=O)Nc2ccccc2)c(-c2ccccc2)c(-c2ccc(F)cc2)n1CC[C@@H](O)C[C@@H](O)CC(=O)O` [atorvastatin], the entry is “well tolerated”.
As to polymyxin, the “effect on morphology and growth” value in the series on wild type cells [2] was “little or no effect”. The “effect on growth or survival” value in series [3] was “selectively slow down the growth of or kill pten− cells”.
`CC[C@H](C)C(=O)O[C@H]1C[C@@H](C)C=C2C=C[C@H](C)[C@H](CC[C@@H]3C[C@@H](O)CC(=O)O3)[C@H]21` [lovastatin]: the “cytotoxicity” value in series [1] is on record as “well tolerated”.
Consider `CN(C)CCCN1c2ccccc2Sc2ccc(Cl)cc21` [chlorpromazine], for which, in the series on wild type cells [2], the “effect on morphology and growth” value is “little or no effect”. The “effect on growth or survival” value in series [3] is “selectively slow down the growth of or kill pten− cells”.
For `O=C(O)C[C@H](O)C[C@H](O)/C=C/c1c(C2CC2)nc2ccccc2c1-c1ccc(F)cc1` [pitavastatin], in the series on wild type cells [2], the “effect on morphology and growth” value is on record as “little or no effect”. Moreover, the “reduction in cell growth and cell death in parental MCF-10A cells” value with MCF-10A cells is reported as “not MCF-10A cells”. Besides, in series [5], the “cell death in PIK3CA knock-in cells” value was “extensive cell death” and the “cell growth of PIK3CA knock-in cells” value is “marked reduction in cell growth”. Besides, in series [1], the “cytotoxicity” value was “high cytotoxicity; also recorded: higher efficacy compared to all other statins”, the “time after drug treatment at which cell death started to occur” value was “around 40 hours” and the “growth of pten− cells compared to DMSO control” value is reported as “grew much slower”. Moreover, the “cell growth of MCF-10A pten−/− cells” value in series [6] (20, 44, 68 hours) is “selectively inhibited the growth and survival; also recorded: marked reduction in cell growth”. In addition, the “cell death in MCF-10A pten−/− cells” value in series [6] (44 and 68 hours) is given as “cell death induced; also recorded: extensive cell death”. Also, the “effects of pitavastatin with supplementation of cholesterol” value in the series on pten−/− cells was “not cholesterol”. Moreover, the “effects of pitavastatin with supplementation of GGPP” value in the series on pten−/− cells (increasing doses of pitavastatin, with or without GGPP) was “blocked the toxic effects; also recorded: completely blocked”. For the same compound, the “effects of pitavastatin with supplementation of mevalonic acid (MVA)” value in the series with pten−/− cells (increasing doses of pitavastatin, with or without MVA) is recorded as “blocked the toxic effects; also recorded: completely blocked”. In series [3], the “effect on growth or survival” value is “selectively slow down the growth of or kill pten− cells”. In the series on wild type cells [4], the “growth of wild type cells treated with the statins” value is listed as “no significant growth defect”.
With `CN(C)CCCN1c2ccccc2Sc2ccccc21` [promazine], the “effect on morphology and growth” value with wild type cells [2] is listed as “little or no effect”. Moreover, in series [3], the “effect on growth or survival” value was “selectively slow down the growth of or kill pten− cells”.
Take `Oc1c(Cl)cc(Cl)c2cccnc12` [chloroxine]: the “effect on morphology and growth” value with wild type cells [2] is listed as “little or no effect”. In addition, in series [3], the “effect on growth or survival” value is on record as “selectively slow down the growth of or kill pten− cells”.
As for `Nc1ccc(/N=N/c2ccccc2)c(N)n1` [phenazopyridine], the “effect on morphology and growth” value in the series with wild type cells [2] was “little or no effect”. For the same compound, the “effect on growth or survival” value in series [3] is “selectively slow down the growth of or kill pten− cells”.
Take `CSc1ccc2c(c1)N(CCC1CCCCN1C)c1ccccc1S2` (stereo not drawn) [thioridazine]: the “effect on morphology and growth” value in the series on wild type cells [2] is listed as “little or no effect”. In addition, the “effect on growth or survival” value in series [3] is on record as “selectively slow down the growth of or kill pten− cells”.
